{
  "source": "patent US20230174608A1",
  "about": "“Polypeptide Derivative Having Dual Receptor Agonistic Action and Use Thereof” (TIANJIN INSTITUTE OF PHARMACEUTICAL RESEARCH CO., LTD., priority 2020, published 2023)",
  "key": {"GCGR": {"target": "T1, GCGR (Homo sapiens, UniProt P47871)", "T1 construct": "expressed in transfected cells", "T1 sequence (P47871 26-477, species assumed)": "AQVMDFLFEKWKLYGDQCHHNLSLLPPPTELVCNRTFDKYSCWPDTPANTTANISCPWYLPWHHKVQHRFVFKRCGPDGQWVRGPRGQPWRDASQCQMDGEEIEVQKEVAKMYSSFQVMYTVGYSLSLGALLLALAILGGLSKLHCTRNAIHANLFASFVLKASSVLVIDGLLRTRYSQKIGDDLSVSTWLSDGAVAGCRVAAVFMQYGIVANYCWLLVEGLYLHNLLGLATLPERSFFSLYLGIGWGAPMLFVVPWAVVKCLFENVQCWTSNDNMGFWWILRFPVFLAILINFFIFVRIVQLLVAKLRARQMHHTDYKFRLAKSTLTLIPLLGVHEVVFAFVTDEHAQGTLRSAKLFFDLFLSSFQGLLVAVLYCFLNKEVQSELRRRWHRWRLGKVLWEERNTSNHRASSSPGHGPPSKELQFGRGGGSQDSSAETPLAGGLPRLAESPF", "assay": "GC receptor-mediated cAMP production in vitro", "type": "cell-based", "conditions": "HEK293 cell line stably expressing GCGR", "in_short": "(§1)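 HEK293 cells stably expressing human GLP-1R or GCGR are stimulated with compound for 30 min in the dark in serum-free medium with 0.5 mM IBMX, with test dilutions spanning 1 μM down to 10^−3 nM. cAMP is detected after a 60 min room-temperature reaction as the 665/615 nm ratio.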"}, "GLP-1R": {"target": "T2, GLP-1R (Homo sapiens, UniProt P43220)", "T2 construct": "expressed in transfected cells", "T2 sequence (P43220 24-463, species assumed)": "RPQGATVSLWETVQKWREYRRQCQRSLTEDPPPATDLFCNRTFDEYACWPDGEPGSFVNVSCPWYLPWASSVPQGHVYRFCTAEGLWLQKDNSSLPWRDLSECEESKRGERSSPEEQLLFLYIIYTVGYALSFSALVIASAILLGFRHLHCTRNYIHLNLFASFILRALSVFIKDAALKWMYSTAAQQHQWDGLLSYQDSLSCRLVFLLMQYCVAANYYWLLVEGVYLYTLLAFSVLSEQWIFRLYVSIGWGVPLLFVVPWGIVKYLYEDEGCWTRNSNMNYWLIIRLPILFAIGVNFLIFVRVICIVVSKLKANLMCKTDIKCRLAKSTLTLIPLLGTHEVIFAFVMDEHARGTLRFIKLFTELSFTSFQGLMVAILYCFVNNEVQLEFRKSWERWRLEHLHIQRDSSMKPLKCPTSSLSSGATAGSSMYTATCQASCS", "assay": "GLP-1 receptor-mediated cAMP production in vitro", "type": "cell-based", "conditions": "HEK293 cell line stably expressing GLP-1R", "in_short": "as §1"}, "[1]": {"tested_on": "diet-induced obesity (DIO) mice", "assay": "DIO mice, weight and blood glucose after multiple administrations at different doses", "type": "in vivo, C57BL/6N mice", "conditions": "for Fasting blood glucose (mmol/L) before the last administration / Blood glucose level (mmol/L) 0.5 h after glucose loading / Glycemic load reduction rate: Day 22; for Fasting blood glucose (mmol/L) before the last administration: fasted 16 h; for Blood glucose level (mmol/L) 0.5 h after glucose loading: glucose 1 g/kg intragastric 30 min after administration; for Glycemic load reduction rate: versus model control group; for Reduction rate of weight without fasting on day 21 compared to day 0: n=5", "excerpt": "40 C57BL/6N mice were purchased from Beijing Vital River Laboratory Animal Technology Co., Ltd. Mice in a model group (n=35) were fed with H10060 high-fat diets to obtain diet-induced obesity (DIO) models, mice in a blank control group (n=5) were fed with standard diets, and all the mice were fed for 36 weeks. On the day of the first administration, the mice in the model group were randomly divided into 7 groups according to their weights (within a range of 45-60 g), i.e., a model control group, positive control groups (semaglutide at doses of 10 nmol/kg and 30 nmol/kg, respectively), and test compound groups (dgc005 and dgc016 at doses of 10 nmol/kg and 30 nmol/kg, respectively), 5 mice in each group. The positive control drug and the test compounds were respectively subcutaneously injected into each mouse in the positive control groups and the test compound groups every day, saline was subcutaneously injected into each mouse in the blank control group and the model control group, and the administration was performed for 22 days (the administration volume for each group was 0.005 mL/g weight). The mice were weighed before each administration, and 72-h food intake was weighed every three days. The mice fasted for 16 h before the last administration, and 30 min after administration, a glucose solution (1 g/kg, the administration volume was 0.01 mL/g weight) was intragastrically administered to each mouse for glucose tolerance test. Blood glucose levels were determined 0.5 h after glucose loading."}, "[2]": {"tested_on": "diet-induced obesity (DIO) mice", "assay": "Obese (DIO) model mice, 23 days of successive administration", "type": "in vivo, C57BL/6J Gpt mice", "excerpt": "C57BL/6J Gpt mice (purchased from GemPharmatech (Jiangsu) Co., Ltd.) (6-8-week-old) were fed with H10060 high-fat diet (purchased from Beijing HFK Bioscience Co., Ltd.) to obtain diet-induced obesity (DIO) models, mice in a blank control group (n=5) were fed with standard diets, and all the mice were fed for 11 weeks after being purchased. One day before the first administration, the mice in the model group were randomly divided into 5 groups according to their weights (within a range of 39.5-49.5 g), i.e., a model control group, a positive control group, and test compound groups (dgc005, dgc016, and dgc020), respectively, 5 mice in each group, which were administered every day by subcutaneous injection. Saline was subcutaneously injected in the blank control group and the model control group every day. The administration was performed for 23 days. The positive control drug and the test compounds were administered at a dose of 30 nmol/kg, and the administration volume for each group was 0.005 mL/g weight. The mice were weighed before each administration, and 72-h food intake was weighed every three days. The mice fasted for 16 h before the last administration, fasting blood glucose levels were determined, blood was sampled from the orbital venous plexus to determine triglycerides and total cholesterol, and the liver was taken out for pathological section observation.\nThe liver of each C576L/6 mouse in the groups was fixed with 12% formaldehyde and prepared into a specimen, and the tissue block was repaired, dehydrated with graded alcohol, embedded in paraffin, stained with HE, and examined under a light microscope."}, "[3]": {"tested_on": "glucose loaded normal mice", "assay": "Glucose loading test on normal mice after single administration", "type": "in vivo, Kunming mice", "procedure": "The hypoglycemic action of each compound of Example 1 was assessed by a glucose loading test on normal mice after single administration.\nMethod: Kunming mice (male, with a weight of 20-22 g) were acclimated in a barrier environment animal room for 3 days, divided into a blank control group, a model control group, a positive control group, and test compound groups, 5 mice in each group, and fasted for 6 h. Saline was administered to each mouse in the blank control group and the model control group, the compounds and a positive control drug were respectively administered to each mouse in the test compound groups and the positive control group at a dose of 30 nmol/kg, and the positive control drug was semaglutide. 60 min after administration, glucose was intragastrically administered to each mouse in the model control group, the positive control group, and the test compound groups at a dose of 2.5 g/kg (0.01 mL·g^−1 weight), distilled water was administered to each mouse in the blank control group, and blood glucose levels were determined 30 min after glucose loading."}, "[4]": {"conditions": "after 23 days of administration, 30 nmol/kg s.c. daily, n=5"}},
  "note": "Marks after values point to notes of the source that are not given here. Where a SMILES comes first, the peptide text is derived from it.",
  "data": [
    {"smiles": "CCCCCCCCCCCCCCCC(=O)N[C@@H](CCC(=O)N[C@@H](CCC(=O)NCCCC[C@H](NC(=O)[C@H](C)NC(=O)[C@H](C)NC(=O)[C@H](CCCNC(=N)N)NC(=O)[C@H](CCC(=O)O)NC(=O)[C@H](CCC(=O)O)NC(=O)[C@H](CC(C)C)NC(=O)[C@H](Cc1ccc(O)cc1)NC(=O)[C@H](CCCCN)NC(=O)[C@H](CO)NC(=O)[C@H](Cc1ccc(O)cc1)NC(=O)[C@H](CC(=O)O)NC(=O)[C@H](CO)NC(=O)[C@@H](NC(=O)[C@H](Cc1ccccc1)NC(=O)[C@@H](NC(=O)CNC(=O)[C@H](CCC(N)=O)NC(=O)C(C)(C)NC(=O)[C@@H](N)Cc1c[nH]cn1)[C@@H](C)O)[C@@H](C)O)C(=O)N[C@@H](CCC(=O)O)C(=O)N[C@@H](Cc1ccccc1)C(=O)N[C@H](C(=O)N[C@@H](C)C(=O)N[C@@H](Cc1c[nH]c2ccccc12)C(=O)N[C@@H](CC(C)C)C(=O)N[C@@H](CCC(=O)O)C(=O)NCC(=O)NCC(N)=O)[C@@H](C)CC)C(=O)O)C(=O)O", "note": "[dgc016] (HELM PEPTIDE1{H.[Aib].Q.G.T.F.T.S.D.Y.S.K.Y.L.E.E.R.A.A.K.E.F.I.A.W.L.E.G.G.[am]}|PEPTIDE2{[CCCCCCCCCCCCCCCC(=O)[*:2]].[gGlu].[gGlu]}$PEPTIDE1,PEPTIDE2,20:R3-3:R2$$$V2.0; N-terminus assumed)", "values": [
      {"measurement": "EC50", "setting": "GCGR", "result": 0.342, "unit": "nM"},
      {"measurement": "EC50", "setting": "GLP-1R", "result": 1.23, "unit": "nM"},
      {"measurement": "Fasting blood glucose (mmol/L) before the last administration", "setting": "[1]; 10 nmol/kg s.c. daily", "result": "4.68 ± 2.12", "unit": "mmol/L"},
      {"measurement": "Blood glucose level (mmol/L) 0.5 h after glucose loading", "setting": "[1]; 10 nmol/kg s.c. daily", "result": "7.12 ± 0.61**^Δ mmol/L"},
      {"measurement": "Glycemic load reduction rate", "setting": "[1]; 10 nmol/kg s.c. daily", "result": 32.32},
      {"measurement": "Reduction rate of weight without fasting on day 21 compared to day 0", "setting": "[1]; 10 nmol/kg s.c. every day", "result": 17.56, "unit": "%"},
      {"measurement": "Fasting blood glucose (mmol/L) before the last administration", "setting": "[1]; 30 nmol/kg s.c. daily", "result": "5.02 ± 2.34", "unit": "mmol/L"},
      {"measurement": "Blood glucose level (mmol/L) 0.5 h after glucose loading", "setting": "[1]; 30 nmol/kg s.c. daily", "result": "7.48 ± 0.78", "unit": "mmol/L"},
      {"measurement": "Glycemic load reduction rate", "setting": "[1]; 30 nmol/kg s.c. daily", "result": 28.90},
      {"measurement": "Reduction rate of weight without fasting on day 21 compared to day 0", "setting": "[1]; 30 nmol/kg s.c. every day", "result": 19.92, "unit": "%"},
      {"measurement": "Fasting blood glucose (mmol/L) before the last administration", "setting": "[2]; 30 nmol/kg s.c. daily, 23 days, fasted 16 h, n=5", "result": "4.18 ± 0.40", "unit": "mmol/L"},
      {"measurement": "Weight decreasing rate", "setting": "[2]; 30 nmol/kg s.c. every day, without fasting before the last administration compared to day 1", "result": 29.3, "unit": "%"},
      {"measurement": "Effect on triglycerides (in words)", "setting": "[2]; 23 days, 30 nmol/kg s.c. daily", "result": "has a triglyceride reduction action"},
      {"measurement": "Examination of liver pathological section", "setting": "[2]; 23 days, 30 nmol/kg s.c. daily, HE stain, 2 animals", "result": "no obvious pathological changes are seen in portal areas and interstitium"},
      {"measurement": "TC (total cholesterol)", "setting": "[2]; [4]", "result": "3.32 ± 0.73 ^ mmol/L"},
      {"measurement": "TG (triglycerides)", "setting": "[2]; [4]", "result": "0.75 ± 0.10**^ΔΔ mmol/L"},
      {"measurement": "72-h food intake", "setting": "[2]; day 4 of administration, 30 nmol/kg s.c. daily", "result": 3.30, "unit": "g/mouse"},
      {"measurement": "72-h food intake", "setting": "[2]; day 7 of administration, 30 nmol/kg s.c. daily", "result": 4.80, "unit": "g/mouse"},
      {"measurement": "72-h food intake", "setting": "[2]; day 10 of administration, 30 nmol/kg s.c. daily", "result": 6.10, "unit": "g/mouse"},
      {"measurement": "72-h food intake", "setting": "[2]; day 13 of administration, 30 nmol/kg s.c. daily", "result": 5.70, "unit": "g/mouse"},
      {"measurement": "Blood glucose reduction rate (%)", "setting": "[3]; 30 nmol/kg single dose, after glucose loading, versus model control group", "result": 59.88, "unit": "%"},
      {"measurement": "Blood glucose level after glucose loading", "setting": "[3]; 30 nmol/kg single dose, glucose 2.5 g/kg intragastric 60 min after administration, measured 30 min after loading, n=5", "result": "6.82 ± 1.78**^ mmol/L"},
      {"measurement": "Inhibition of the rise of blood glucose after glucose loading (in words)", "setting": "[3]; 30 nmol/kg single dose, normal mice", "result": "equivalent to that of the positive control drug"},
      {"measurement": "Fasting blood glucose level", "setting": "[3]; normal mice fasted 6 h, 30 nmol/kg group, n=5", "result": "3.66 ± 0.77", "unit": "mmol/L"}
    ]}
  ]
}
